# From PubChem BioAssay AID248 (DTP/NCI, 2004)
# Values joined by “and” are separate entries in the source; they are usually repeats but may differ in a detail not shown here. Equal values may be shown once. Toxic doses and inconclusive results are not listed.
# Test system: L1210 leukemia ip in BDF1 mice, survival T/C
# Experiment: NCI In Vivo Anticancer Drug Screen. Data for tumor model L1210 Leukemia (intraperitoneal) in B6D2F1 (BDF1) mice
# Details: endpoint: mean survival time, higher = longer survival
# Method in brief: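 Tumor cells were implanted, animals were treated, and survival was followed. The result divides the treated measurement by the vehicle-control measurement.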
# [1] = dose: 100.0 mg/kg/injection, schedule: Q01DX001 (ip), vehicle: saline
# [2] = dose: 200.0 mg/kg/injection, schedule: Q01DX001 (ip), vehicle: saline
# [3] = dose: 400.0 mg/kg/injection, schedule: Q01DX001 (ip), vehicle: saline
# [4] = dose: 100.0 mg/kg/injection, schedule: Q04DX002 (ip), vehicle: saline with Tween-80
# [5] = dose: 200.0 mg/kg/injection, schedule: Q04DX002 (ip), vehicle: saline with Tween-80
# [6] = dose: 400.0 mg/kg/injection, schedule: Q04DX002 (ip), vehicle: saline with Tween-80
# [7] = dose: 100.0 mg/kg/injection, schedule: Q01DX001 (ip), vehicle: Klucel (hydroxypropylcellulose) (HPC)
# [8] = dose: 200.0 mg/kg/injection, schedule: Q01DX001 (ip), vehicle: Klucel (hydroxypropylcellulose) (HPC)
# [9] = dose: 400.0 mg/kg/injection, schedule: Q01DX001 (ip), vehicle: Klucel (hydroxypropylcellulose) (HPC)
# [10] = dose: 100.0 mg/kg/injection, schedule: Q04DX003 (ip), vehicle: saline with Tween-80
# [11] = dose: 200.0 mg/kg/injection, schedule: Q04DX003 (ip), vehicle: saline with Tween-80
# [12] = dose: 100.0 mg/kg/injection, schedule: Q01DX009 (ip), vehicle: Klucel (hydroxypropylcellulose) (HPC)
# [13] = dose: 100.0 mg/kg/injection, schedule: Q04DX003 (ip), vehicle: Klucel (hydroxypropylcellulose) (HPC)
# [14] = dose: 200.0 mg/kg/injection, schedule: Q01DX009 (ip), vehicle: Klucel (hydroxypropylcellulose) (HPC)
# [15] = dose: 200.0 mg/kg/injection, schedule: Q04DX003 (ip), vehicle: Klucel (hydroxypropylcellulose) (HPC)
# [16] = dose: 400.0 mg/kg/injection, schedule: Q01DX009 (ip), vehicle: Klucel (hydroxypropylcellulose) (HPC)
# [17] = dose: 400.0 mg/kg/injection, schedule: Q04DX003 (ip), vehicle: Klucel (hydroxypropylcellulose) (HPC)
# [18] = dose: 100.0 mg/kg/injection, schedule: Q04DX002 (ip), vehicle: saline
# [19] = dose: 100.0 mg/kg/injection, schedule: Q01DX009 (ip), vehicle: saline
# [20] = dose: 50.0 mg/kg/injection, schedule: Q01DX001 (ip), vehicle: saline
smiles,measurement,setting,value
c1ccc(SCc2ccncc2)nc1,T/C,[1],100 % of control
same,T/C,[2],92 % of control
same,T/C,[3],88 % of control
O=c1oc2c(Cl)cc(Cl)cc2cc1-c1nc2ccccc2[nH]1,T/C,[4],100 % of control
same,T/C,[5],93 % of control
same,T/C,[6],96 % of control
COC(=O)c1n[nH]c(C)c1N=NN(C)C,T/C,"dose: 75.0 mg/kg/injection, schedule: Q01DX001 (ip), vehicle: saline",119 % of control
same,T/C,"dose: 150.0 mg/kg/injection, schedule: Q01DX001 (ip), vehicle: saline",123 % of control
CN(C)Cc1ccccc1COC(=O)c1ccc(Cl)cc1,T/C,"dose: 75.0 mg/kg/injection, schedule: Q04DX002 (ip), vehicle: saline",102 % of control
same,T/C,"dose: 150.0 mg/kg/injection, schedule: Q04DX002 (ip), vehicle: saline",94 % of control
same,T/C,"dose: 300.0 mg/kg/injection, schedule: Q04DX002 (ip), vehicle: saline",96 % of control
CC(C)CN(CC(C)C)[N+](=O)[O-],T/C,[7],97 % of control
same,T/C,[8],114 % of control
same,T/C,[9],97 % of control
Cc1ccc(S(=O)(=O)N/N=C/c2ccc(C)s2)cc1,T/C,[10],95 % of control
same,T/C,[11],91 % of control
same,T/C,"dose: 400.0 mg/kg/injection, schedule: Q04DX003 (ip), vehicle: saline with Tween-80",87 % of control
CCOc1ccc(Br)cc1/C=C1\N=C(c2ccccc2)OC1=O,T/C,[12],93 % of control and 95 % of control
same,T/C,[13],97 % of control and 98 % of control
same,T/C,[14],93 % of control and 98 % of control
same,T/C,[15],98 % of control and 89 % of control
same,T/C,[16],96 % of control and 86 % of control
same,T/C,[17],93 % of control and 98 % of control
O=Cc1cccc(OCc2cccc([N+](=O)[O-])c2)c1,T/C,[12],98 % of control
same,T/C,"dose: 100.0 mg/kg/injection, schedule: Q04DX002 (ip), vehicle: Klucel (hydroxypropylcellulose) (HPC)",108 % of control
same,T/C,[18],102 % of control
same,T/C,[14],102 % of control
same,T/C,"dose: 200.0 mg/kg/injection, schedule: Q04DX002 (ip), vehicle: Klucel (hydroxypropylcellulose) (HPC)",105 % of control
same,T/C,"dose: 200.0 mg/kg/injection, schedule: Q04DX002 (ip), vehicle: saline",97 % of control
same,T/C,[16],95 % of control
same,T/C,"dose: 400.0 mg/kg/injection, schedule: Q04DX002 (ip), vehicle: Klucel (hydroxypropylcellulose) (HPC)",97 % of control
same,T/C,"dose: 400.0 mg/kg/injection, schedule: Q04DX002 (ip), vehicle: saline",108 % of control
CCc1ccc2[nH]c(C(=O)O)cc2c1,T/C,[1],92 % of control
same,T/C,[3],90 % of control
O=c1[nH]c(=S)[nH]c2c1CP(=S)(c1ccccc1)CC2 (stereo unspecified),T/C,[4],106 % of control
same,T/C,[5],100 % of control
same,T/C,[6],100 % of control
Clc1ccc2c(c1)/C(=C/c1ccccc1Cl)c1cc(Cl)cc(Cl)c1-2,T/C,[7],90 % of control
same,T/C,[12],100 % of control
same,T/C,[13],91 % of control
same,T/C,[8],88 % of control
same,T/C,[14],88 % of control
same,T/C,[15],87 % of control
same,T/C,[9],91 % of control
same,T/C,[16],102 % of control
same,T/C,[17],87 % of control
NNC(N)=S,T/C,"dose: 3.13 mg/kg/injection, schedule: Q04DX003 (ip), vehicle: saline",109 % of control
same,T/C,"dose: 6.25 mg/kg/injection, schedule: Q04DX003 (ip), vehicle: saline",104 % of control and 103 % of control
same,T/C,"dose: 12.5 mg/kg/injection, schedule: Q04DX003 (ip), vehicle: saline",97 % of control and 100 % of control
O=C(CCCC(=O)N/N=C/C1CC=CCC1)N/N=C\C1CC=CCC1 (stereo unspecified),T/C,"dose: 50.0 mg/kg/injection, schedule: Q01DX001 (ip), vehicle: other",90 % of control
same,T/C,"dose: 100.0 mg/kg/injection, schedule: Q01DX001 (ip), vehicle: other",90 % of control
same,T/C,"dose: 400.0 mg/kg/injection, schedule: Q01DX001 (ip), vehicle: other",98 % of control
CN=C(N)Nc1ccc(NC(=O)c2ccc(C(=O)Nc3ccc(NC(N)=NC)cc3)cc2)cc1,T/C,"dose: 0.25 mg/kg/injection, schedule: Q01DX015 (ip), vehicle: methylcellulose (MC)",113 % of control
same,T/C,"dose: 0.25 mg/kg/injection, schedule: Q01DX Z (ip), vehicle: carboxymethylcellulose (CMC)",107 % of control
same,T/C,"dose: 0.5 mg/kg/injection, schedule: Q01DX015 (ip), vehicle: methylcellulose (MC)",110 % of control
same,T/C,"dose: 0.5 mg/kg/injection, schedule: Q01DX Z (ip), vehicle: carboxymethylcellulose (CMC)",123 % of control
same,T/C,"dose: 1.0 mg/kg/injection, schedule: Q01DX Z (ip), vehicle: carboxymethylcellulose (CMC)",156 % of control
same,T/C,"dose: 2.0 mg/kg/injection, schedule: Q01DX015 (ip), vehicle: methylcellulose (MC)",236 % of control
same,T/C,"dose: 2.0 mg/kg/injection, schedule: Q01DX Z (ip), vehicle: carboxymethylcellulose (CMC)",231 % of control and 254 % of control
same,T/C,"dose: 4.0 mg/kg/injection, schedule: Q01DX015 (ip), vehicle: methylcellulose (MC)",228 % of control
same,T/C,"dose: 4.0 mg/kg/injection, schedule: Q01DX Z (ip), vehicle: carboxymethylcellulose (CMC)",211 % of control
same,T/C,"dose: 16.0 mg/kg/injection, schedule: Q01DX015 (ip), vehicle: methylcellulose (MC)",93 % of control
same,T/C,"dose: 17.0 mg/kg/injection, schedule: Q01DX Z (ip), vehicle: carboxymethylcellulose (CMC)",100 % of control
same,T/C,"dose: 30.0 mg/kg/injection, schedule: Q01DX001 (ip), vehicle: methylcellulose (MC)",163 % of control and 211 % of control
same,T/C,"dose: 62.0 mg/kg/injection, schedule: Q01DX Z (oral), vehicle: carboxymethylcellulose (CMC)",98 % of control
same,T/C,"dose: 125.0 mg/kg/injection, schedule: Q01DX Z (oral), vehicle: carboxymethylcellulose (CMC)",101 % of control
same,T/C,"dose: 250.0 mg/kg/injection, schedule: Q01DX Z (oral), vehicle: carboxymethylcellulose (CMC)",105 % of control
same,T/C,"dose: 500.0 mg/kg/injection, schedule: Q01DX Z (oral), vehicle: carboxymethylcellulose (CMC)",105 % of control
COc1cc2cc(-c3cc(OC)c(OC)c(OC)c3)c3c(c2cc1OC)CNC3=O,T/C,[19],90 % of control
same,T/C,"dose: 100.0 mg/kg/injection, schedule: Q04DX003 (ip), vehicle: saline",93 % of control
same,T/C,"dose: 200.0 mg/kg/injection, schedule: Q01DX009 (ip), vehicle: saline",90 % of control
same,T/C,"dose: 200.0 mg/kg/injection, schedule: Q04DX003 (ip), vehicle: saline",101 % of control
same,T/C,"dose: 400.0 mg/kg/injection, schedule: Q04DX003 (ip), vehicle: saline",101 % of control
O=S(=O)(NOCCCCONS(=O)(=O)c1ccccc1)c1ccccc1,T/C,"dose: 100.0 mg/kg/injection, schedule: Q01DX001 (ip), vehicle: saline with Tween-80",88 % of control
same,T/C,"dose: 200.0 mg/kg/injection, schedule: Q01DX001 (ip), vehicle: saline with Tween-80",95 % of control
same,T/C,"dose: 400.0 mg/kg/injection, schedule: Q01DX001 (ip), vehicle: saline with Tween-80",97 % of control
CNCC1OC(n2cc(C)c(=O)[nH]c2=O)CC1O (stereo unspecified),T/C,"dose: 25.0 mg/kg/injection, schedule: Q04DX002 (ip), vehicle: saline",108 % of control
same,T/C,"dose: 50.0 mg/kg/injection, schedule: Q04DX002 (ip), vehicle: saline",115 % of control
same,T/C,[18],97 % of control
O=C(Nc1ccccc1F)C(Br)C(Br)c1ccccc1 (stereo unspecified),T/C,[12],92 % of control
same,T/C,[14],100 % of control
same,T/C,[16],96 % of control
CCSC(C(Nc1ccc([N+](=O)[O-])cc1[N+](=O)[O-])C(O)C(O)C(O)CO)n1cc(C)c(=O)[nH]c1=O (stereo unspecified),T/C,[20],97 % of control
same,T/C,[1],100 % of control
same,T/C,[2],100 % of control
same,T/C,[3],100 % of control
CN(C)CCCN1c2ccccc2C(C)(C)c2ccccc21,T/C,[20],96 % of control
same,T/C,"dose: 50.0 mg/kg/injection, schedule: Q01DX009 (ip), vehicle: saline with Tween-80",104 % of control
same,T/C,"dose: 50.0 mg/kg/injection, schedule: Q01DX009 (ip), vehicle: saline",106 % of control
same,T/C,[1],96 % of control
same,T/C,"dose: 100.0 mg/kg/injection, schedule: Q01DX009 (ip), vehicle: saline with Tween-80",116 % of control
same,T/C,[19],118 % of control
same,T/C,[10],107 % of control
same,T/C,[2],104 % of control
same,T/C,[11],102 % of control
CCC(C)C(CN)(CCCCN1CCCC1)c1cccc2ccccc12 (stereo unspecified),T/C,[10],102 % of control
